Experimental data: paper PMC9030254, “Target Hopping from Protein Kinases to PXR: Identification of Small-Molecule Protein Kinase Inhibitors as Selective Modulators of Pregnane X Receptor from TüKIC Library” (Cells, 2022)

What was measured:
Test in all cases: Kinase profiling
Type in all cases: biochemical
ACVR1B = biological target: T1, ACVR1B (Homo sapiens, UniProt P36896)
T1 construct: purchased ProQinase (Freiburg, Germany)
T1 sequence (P36896 24-505): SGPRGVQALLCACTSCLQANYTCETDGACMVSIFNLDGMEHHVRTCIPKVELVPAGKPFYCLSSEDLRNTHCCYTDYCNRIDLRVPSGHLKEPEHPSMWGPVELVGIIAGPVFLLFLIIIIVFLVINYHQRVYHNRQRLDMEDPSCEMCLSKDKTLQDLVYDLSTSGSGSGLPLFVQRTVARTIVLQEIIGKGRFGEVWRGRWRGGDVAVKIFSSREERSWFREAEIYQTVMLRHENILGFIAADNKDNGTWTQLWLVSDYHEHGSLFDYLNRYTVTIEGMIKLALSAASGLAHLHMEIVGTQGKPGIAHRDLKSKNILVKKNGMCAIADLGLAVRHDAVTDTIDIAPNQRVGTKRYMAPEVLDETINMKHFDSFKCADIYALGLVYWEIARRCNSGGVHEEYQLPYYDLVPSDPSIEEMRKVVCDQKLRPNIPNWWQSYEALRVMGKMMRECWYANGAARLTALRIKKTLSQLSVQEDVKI
Method: (§1) The analysis was performed by ProQinase (Freiburg, Germany).

EPHB2 = biological target: T2, EPHB2 (Homo sapiens, UniProt P29323)
T2 construct: purchased ProQinase (Freiburg, Germany)
T2 sequence (P29323 19-1055): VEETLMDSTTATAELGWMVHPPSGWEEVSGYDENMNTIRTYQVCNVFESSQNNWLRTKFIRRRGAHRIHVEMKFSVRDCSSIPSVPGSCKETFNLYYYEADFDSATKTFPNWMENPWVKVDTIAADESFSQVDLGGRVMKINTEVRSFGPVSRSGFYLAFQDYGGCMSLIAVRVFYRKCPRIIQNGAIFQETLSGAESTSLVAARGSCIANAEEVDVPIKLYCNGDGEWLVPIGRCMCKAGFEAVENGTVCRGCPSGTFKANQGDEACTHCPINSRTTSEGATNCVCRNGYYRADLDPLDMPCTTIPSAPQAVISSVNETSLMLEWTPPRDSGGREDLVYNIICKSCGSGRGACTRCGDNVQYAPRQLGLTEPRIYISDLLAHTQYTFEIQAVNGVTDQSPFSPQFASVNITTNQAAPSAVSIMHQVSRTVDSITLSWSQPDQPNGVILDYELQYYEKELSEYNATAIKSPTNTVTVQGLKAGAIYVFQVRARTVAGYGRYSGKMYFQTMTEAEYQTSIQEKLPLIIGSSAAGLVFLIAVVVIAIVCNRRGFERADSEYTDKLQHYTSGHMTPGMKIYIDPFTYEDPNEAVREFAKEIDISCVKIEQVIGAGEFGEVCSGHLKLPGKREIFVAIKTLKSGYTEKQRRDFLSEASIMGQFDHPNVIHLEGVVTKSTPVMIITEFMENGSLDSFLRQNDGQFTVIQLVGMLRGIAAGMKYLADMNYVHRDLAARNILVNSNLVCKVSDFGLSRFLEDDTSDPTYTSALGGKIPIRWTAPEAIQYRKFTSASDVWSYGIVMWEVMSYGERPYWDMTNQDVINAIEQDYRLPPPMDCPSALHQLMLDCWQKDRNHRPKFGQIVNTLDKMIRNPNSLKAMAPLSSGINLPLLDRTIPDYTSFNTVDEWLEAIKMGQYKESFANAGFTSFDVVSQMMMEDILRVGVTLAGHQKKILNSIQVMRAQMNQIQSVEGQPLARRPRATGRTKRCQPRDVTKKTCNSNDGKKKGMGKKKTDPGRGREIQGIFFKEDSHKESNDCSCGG
Method: as §1

MTOR = biological target: T3, MTOR (Homo sapiens, UniProt P42345)
T3 construct: purchased ProQinase (Freiburg, Germany)
Method: as §1

EIF2AK3 = biological target: T4, EIF2AK3 (Homo sapiens, UniProt Q9NZJ5)
T4 construct: purchased ProQinase (Freiburg, Germany)
T4 sequence (Q9NZJ5 30-1116): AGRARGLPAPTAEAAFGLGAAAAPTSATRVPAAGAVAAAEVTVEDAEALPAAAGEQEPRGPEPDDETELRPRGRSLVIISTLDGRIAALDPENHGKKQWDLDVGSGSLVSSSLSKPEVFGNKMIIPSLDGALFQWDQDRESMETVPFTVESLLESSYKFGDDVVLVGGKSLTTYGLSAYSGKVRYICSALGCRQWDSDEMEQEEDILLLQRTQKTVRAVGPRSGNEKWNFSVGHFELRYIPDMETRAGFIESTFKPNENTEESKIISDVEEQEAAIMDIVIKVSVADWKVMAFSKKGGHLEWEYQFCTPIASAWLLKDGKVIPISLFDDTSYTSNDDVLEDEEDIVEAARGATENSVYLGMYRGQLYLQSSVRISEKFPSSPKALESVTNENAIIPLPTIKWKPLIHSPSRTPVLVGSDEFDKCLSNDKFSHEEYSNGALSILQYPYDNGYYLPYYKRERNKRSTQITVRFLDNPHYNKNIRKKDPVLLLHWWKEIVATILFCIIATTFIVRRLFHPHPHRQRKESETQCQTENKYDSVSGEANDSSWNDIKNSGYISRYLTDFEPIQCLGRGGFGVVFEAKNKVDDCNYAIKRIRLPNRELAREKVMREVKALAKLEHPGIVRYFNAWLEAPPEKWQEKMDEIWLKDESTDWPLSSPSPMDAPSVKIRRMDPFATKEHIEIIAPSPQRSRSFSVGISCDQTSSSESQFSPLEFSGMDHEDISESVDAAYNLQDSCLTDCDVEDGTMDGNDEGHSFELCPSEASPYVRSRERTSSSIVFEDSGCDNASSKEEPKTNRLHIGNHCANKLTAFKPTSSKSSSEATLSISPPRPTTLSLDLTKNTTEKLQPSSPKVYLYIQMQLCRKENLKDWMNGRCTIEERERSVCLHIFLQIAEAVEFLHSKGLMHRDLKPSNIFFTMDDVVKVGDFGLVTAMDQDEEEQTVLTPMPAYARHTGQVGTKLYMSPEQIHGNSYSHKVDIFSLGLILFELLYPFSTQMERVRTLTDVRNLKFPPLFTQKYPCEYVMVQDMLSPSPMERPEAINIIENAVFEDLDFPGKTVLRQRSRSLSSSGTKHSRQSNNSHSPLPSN
Method: as §1

SRC = biological target: T5, SRC (Homo sapiens, UniProt P12931)
T5 construct: purchased ProQinase (Freiburg, Germany)
Method: as §1

EPHA7 = biological target: T6, EPHA7 (Homo sapiens, UniProt Q15375)
T6 construct: purchased ProQinase (Freiburg, Germany)
Method: as §1

TLK2 = biological target: T7, TLK2 (Homo sapiens, UniProt Q86UE8)
T7 construct: purchased ProQinase (Freiburg, Germany)
Method: as §1

T6 sequence (Q15375 28-998): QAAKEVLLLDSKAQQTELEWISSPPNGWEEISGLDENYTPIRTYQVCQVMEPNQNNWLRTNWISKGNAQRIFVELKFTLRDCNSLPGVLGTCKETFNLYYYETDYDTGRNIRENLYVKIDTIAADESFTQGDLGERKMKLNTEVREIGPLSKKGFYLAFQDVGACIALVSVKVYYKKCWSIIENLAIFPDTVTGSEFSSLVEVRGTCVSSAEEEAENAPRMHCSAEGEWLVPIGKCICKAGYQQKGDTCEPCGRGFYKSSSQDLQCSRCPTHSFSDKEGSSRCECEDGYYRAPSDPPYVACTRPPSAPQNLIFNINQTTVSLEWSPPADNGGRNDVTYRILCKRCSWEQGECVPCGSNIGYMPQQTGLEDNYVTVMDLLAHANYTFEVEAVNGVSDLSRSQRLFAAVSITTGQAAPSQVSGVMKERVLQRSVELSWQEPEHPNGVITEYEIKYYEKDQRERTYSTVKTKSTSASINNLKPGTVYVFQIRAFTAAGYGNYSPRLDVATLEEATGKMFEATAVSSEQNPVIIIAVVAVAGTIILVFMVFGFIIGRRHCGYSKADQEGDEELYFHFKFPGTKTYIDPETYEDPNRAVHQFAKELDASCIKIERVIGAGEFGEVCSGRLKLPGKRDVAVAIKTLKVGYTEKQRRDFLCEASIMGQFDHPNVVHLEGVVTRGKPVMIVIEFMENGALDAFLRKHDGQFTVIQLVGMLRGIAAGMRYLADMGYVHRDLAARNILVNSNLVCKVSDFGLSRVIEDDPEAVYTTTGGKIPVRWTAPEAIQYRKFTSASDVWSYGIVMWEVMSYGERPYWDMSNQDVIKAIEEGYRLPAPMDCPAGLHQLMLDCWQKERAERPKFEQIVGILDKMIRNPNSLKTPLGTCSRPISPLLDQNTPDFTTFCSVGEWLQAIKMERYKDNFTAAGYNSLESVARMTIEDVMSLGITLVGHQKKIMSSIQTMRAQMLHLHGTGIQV
T5 sequence (P12931 whole entry): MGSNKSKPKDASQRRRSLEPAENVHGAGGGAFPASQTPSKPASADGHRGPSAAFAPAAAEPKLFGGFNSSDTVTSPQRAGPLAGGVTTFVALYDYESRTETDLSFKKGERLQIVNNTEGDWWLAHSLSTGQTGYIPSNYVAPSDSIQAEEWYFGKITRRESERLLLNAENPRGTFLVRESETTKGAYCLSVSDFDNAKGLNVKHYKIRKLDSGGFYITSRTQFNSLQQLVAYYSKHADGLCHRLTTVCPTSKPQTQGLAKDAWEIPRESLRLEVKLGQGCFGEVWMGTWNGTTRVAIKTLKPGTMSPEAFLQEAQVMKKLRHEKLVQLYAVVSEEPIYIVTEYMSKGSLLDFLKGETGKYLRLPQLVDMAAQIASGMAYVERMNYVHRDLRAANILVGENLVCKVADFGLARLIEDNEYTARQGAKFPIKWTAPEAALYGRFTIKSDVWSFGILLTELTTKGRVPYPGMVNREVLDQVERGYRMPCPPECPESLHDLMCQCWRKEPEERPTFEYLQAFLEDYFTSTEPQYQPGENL
T7 sequence (Q86UE8 whole entry): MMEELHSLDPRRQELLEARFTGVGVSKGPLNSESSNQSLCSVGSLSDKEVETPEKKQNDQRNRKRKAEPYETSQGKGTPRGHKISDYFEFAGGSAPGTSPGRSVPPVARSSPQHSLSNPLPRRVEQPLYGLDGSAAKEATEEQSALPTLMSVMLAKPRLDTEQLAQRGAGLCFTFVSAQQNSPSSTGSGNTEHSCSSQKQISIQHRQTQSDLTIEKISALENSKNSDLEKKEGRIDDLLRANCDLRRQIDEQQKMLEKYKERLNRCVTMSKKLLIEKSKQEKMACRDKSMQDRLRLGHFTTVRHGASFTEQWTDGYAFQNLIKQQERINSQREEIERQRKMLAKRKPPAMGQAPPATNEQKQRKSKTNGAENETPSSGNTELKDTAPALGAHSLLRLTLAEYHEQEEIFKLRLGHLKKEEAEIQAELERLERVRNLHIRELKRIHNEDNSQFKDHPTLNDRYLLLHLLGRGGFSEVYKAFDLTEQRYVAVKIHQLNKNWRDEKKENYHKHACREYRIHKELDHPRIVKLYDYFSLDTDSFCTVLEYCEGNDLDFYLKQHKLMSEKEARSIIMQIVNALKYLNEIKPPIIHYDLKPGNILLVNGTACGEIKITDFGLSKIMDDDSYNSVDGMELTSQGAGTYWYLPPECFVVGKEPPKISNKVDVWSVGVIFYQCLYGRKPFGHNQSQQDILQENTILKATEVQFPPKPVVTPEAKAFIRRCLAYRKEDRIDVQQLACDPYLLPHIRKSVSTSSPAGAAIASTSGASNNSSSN

In the case of `O=C(Cc1ccccc1)Nc1ccc(F)c(Nc2ccc3c(c2)CCCCC3=O)c1` [Compound 100], the Residual activity (ACVR1B; 1.0E-05 M) is reported as 90 % of control, the Residual activity (ACVR1B; 1.0E-06 M) is reported as 92 % of control and the Residual activity (EPHB2; 1.0E-05 M) is reported as 86 % of control. The Residual activity (EPHB2; 1.0E-06 M) was 93 % of control, the Residual activity (MTOR; 1.0E-05 M) was 92 % of control and the Residual activity (MTOR; 1.0E-06 M) was 93 % of control. For the same compound, the Residual activity (EIF2AK3; 1.0E-05 M) was 102 % of control, the Residual activity (EIF2AK3; 1.0E-06 M) was 94 % of control and the Residual activity (SRC; 1.0E-05 M) was 105 % of control. For the same compound, the Residual activity (SRC; 1.0E-06 M) was 117 % of control, the Residual activity (EPHA7; 1.0E-05 M) was 101 % of control and the Residual activity (EPHA7; 1.0E-06 M) was 103 % of control. The Residual activity (TLK2; 1.0E-05 M) was 162 % of control and the Residual activity (TLK2; 1.0E-06 M) was 135 % of control.

For `O=C(Nc1ccc(F)c(Nc2ccc3c(c2)CCCCC3=O)c1)c1cccc(F)c1` [Compound 109], the Residual activity (ACVR1B; 1.0E-05 M) was 87 % of control, the Residual activity (ACVR1B; 1.0E-06 M) was 98 % of control and the Residual activity (EPHB2; 1.0E-05 M) was 84 % of control. For the same compound, the Residual activity (EPHB2; 1.0E-06 M) was 86 % of control, the Residual activity (MTOR; 1.0E-05 M) was 94 % of control and the Residual activity (MTOR; 1.0E-06 M) was 94 % of control. For the same compound, the Residual activity (EIF2AK3; 1.0E-05 M) was 92 % of control, the Residual activity (EIF2AK3; 1.0E-06 M) was 93 % of control and the Residual activity (SRC; 1.0E-05 M) was 100 % of control. For the same compound, the Residual activity (SRC; 1.0E-06 M) was 107 % of control, the Residual activity (EPHA7; 1.0E-05 M) was 96 % of control and the Residual activity (EPHA7; 1.0E-06 M) was 85 % of control. The Residual activity (TLK2; 1.0E-05 M) was 207 % of control and the Residual activity (TLK2; 1.0E-06 M) was 120 % of control.
